Assay results reported in patent US8324258B2, “F1F0-ATPase inhibitors and related methods” (The Regents of the University of Michigan, priority 2007, dated 2012).

Legend:
[1] = target: T1, F1F0-ATPase (Bos taurus, UniProt P13621); assay: Inhibition of ATP hydrolysis by the F1F0-ATPase; format: biochemical; conditions: IC40: concentration for 40% inhibition
Method: (§1) The compounds listed in Table 9 were tested for activity against F1F0-ATPase by measuring ATP synthesis and ATP hydrolysis. In addition, the compounds were assessed for cytotoxicity in Ramos cells Inhibition of ATP synthesis and hydrolysis by the F1F0-ATPase and cytotoxicity in Ramos cells was measured as described in K. M. Johnson et al. Chemistry & Biology 2005, 12, 485-496.

[2] = target: T1, F1F0-ATPase; assay: Inhibition of ATP synthesis by the F1F0-ATPase; format: biochemical; conditions: IC40: concentration for 40% inhibition
Method: as §1

[3] = tested on: Ramos cells; assay: Cytotoxicity (cell death) in Ramos cells; format: cell-based
Method: as §1

Row | SMILES | ATP Hydrolysis (IC40 μM) [1] | ATP Synthesis (IC40 μM) [2] | EC50 ([3]; Ramos cells) | EC50 ([3]; Homo sapiens, Ramos)
1 | O=C(N=C(NCCc1c[nH]cn1)Nc1ccc(-c2ccccc2)cc1)c1ccc(C(F)(F)F)cc1 [II-5, (Z/E)-N-((2-(1H-imidazol-4-yl)ethylamino)(biphenyl-4-ylamino)methylene)-4-(trifluoromethyl)benzamide] | >10 µM | >10 µM | < 10 µM | 
2 | O=C(N=C(NCCc1c[nH]cn1)Nc1ccc(-c2ccc(Cl)cc2)cc1)c1cccc(Cl)c1 [III-29, (Z/E)-N-((2-(1H-imidazol-4-yl)ethylamino)(4′-chlorobiphenyl-4-ylamino)methylene)-3-chlorobenzamide] | >10 µM | >10 µM | < 10 µM | 
3 | O=C(N=C(NCCc1c[nH]cn1)Nc1ccc(-c2ccccc2)cc1)c1ccc(F)cc1 [II-9, (Z/E)-N-((2-(1H-imidazol-4-yl)ethylamino)(biphenyl-4-ylamino)methylene)-4-fluorobenzamide] | >30 µM | >20 µM | > 30 µM | 
4 | CS(=O)(=O)c1ccccc1NC(=NC(=O)c1cccc(Cl)c1)NCCc1cnc[nH]1 [III-38, (Z/E)-N-((2-(1H-imidazol-5-yl)ethylamino)(2-(methylsulfonyl)phenylamino)methylene)-3-chlorobenzamide] | >30 µM | >20 µM | > 30 µM | 
5 | COc1ccccc1NC(=NC(=O)c1cccc(Cl)c1)NCCc1c[nH]cn1 [III-11, (Z/E)-N-((2-(1H-imidazol-4-yl)ethylamino)(2-methoxyphenylamino)methylene)-3-chlorobenzamide] | >30 µM | >10 µM | > 30 µM | 
6 | O=C(N=C(NCCc1c[nH]cn1)Nc1ccc(F)cc1)c1cccc(Cl)c1 [III-16, (Z/E)-N-((2-(1H-imidazol-4-yl)ethylamino)(4-fluorophenylamino)methylene)-3-chlorobenzamide] | >30 µM | >20 µM | > 30 µM | 
7 | CCc1cccc(NC(=NC(=O)c2cccc(Cl)c2)NCCc2c[nH]cn2)c1 [III-42] | >20 µM | <10 µM | > 20 µM | 
8 | Cc1ccc(C(=O)N=C(NCCc2c[nH]cn2)Nc2ccc(-c3ccccc3)cc2)cc1 [II-3, (Z/E)-N-((2-(1H-imidazol-4-yl)ethylamino)(biphenyl-4-ylamino)methylene)-4-methylbenzamide] | >10 µM | >10 µM | < 10 µM | 
9 | O=C(/N=C(/NCCn1ccnc1)Nc1ccc(-c2ccccc2)cc1)c1cccc(Cl)c1 [IV-2, (Z/E)-N-((2-(1H-imidazol-1-yl)ethylamino)(biphenyl-4-ylamino)methylene)-3-chlorobenzamide] | >10 µM | <10 µM |  | > 10 µM
10 | O=C(N=C(NCCc1c[nH]cn1)Nc1ccc(-c2ccccc2)cc1)c1ccc(Cl)cc1 [II-1, (Z/E)-N-((2-(1H-imidazol-4-yl)ethylamino)(biphenyl-4-ylamino)methylene)-4-chlorobenzamide] | >10 µM | >10 µM | > 30 µM | 
11 | Cc1ccccc1C(=O)N=C(NCCc1c[nH]cn1)Nc1ccccc1-c1ccccc1 [Compound I-3, (E/Z)—N-((2-(1H-imidazol-4-yl)ethylamino)(biphenyl-2-ylamino)methylene)-2-methylbenzamide] | >30 µM | >20 µM | > 30 µM | 
12 | Cc1cccc(C(=O)N=C(NCCc2c[nH]cn2)Nc2ccc(-c3ccccc3)cc2)c1 [II-2, (Z/E)-N-((2-(1H-imidazol-4-yl)ethylamino)(biphenyl-4-ylamino)methylene)-3-methylbenzamide] | >10 µM | >10 µM | > 30 µM | 
13 | O=C(N=C(NCCc1c[nH]cn1)Nc1cccc(-c2ccccc2)c1)c1cccc([N+](=O)[O-])c1 [VI-12, (Z/E)-N-((2-(1H-imidazol-4-yl)ethylamino)(biphenyl-3-ylamino)methylene)-3-nitrobenzamide] | >30 µM | <10 µM | > 10 µM | 
14 | N#Cc1cccc(C(=O)N=C(NCCc2c[nH]cn2)Nc2cccc(-c3ccccc3)c2)c1 [VI-5, (Z/E)-N-((2-(1H-imidazol-4-yl)ethylamino)(biphenyl-3-ylamino)methylene)-3-cyanobenzamide] | >30 µM | >10 µM | > 10 µM | 
15 | O=C(N=C(NCCc1c[nH]cn1)Nc1cccc(-c2ccccc2)c1)c1cccc(Cl)c1 [III-6, (Z/E)-N-((2-(1H-imidazol-4-yl)ethylamino)(biphenyl-3-ylamino)methylene)-3-chlorobenzamide] | >10 µM | <10 µM | < 10 µM | 
16 | N#Cc1cccc(C(=O)N=C(NCCc2c[nH]cn2)Nc2ccc(-c3ccccc3)cc2)c1 [II-6, (Z/E)-N-((2-(1H-imidazol-4-yl)ethylamino)(biphenyl-4-ylamino)methylene)-3-cyanobenzamide] | >30 µM | >20 µM | > 30 µM | 
17 | O=C(N=C(NCCc1c[nH]cn1)Nc1ccccc1-c1ccccc1)c1ccccc1Cl [Compound I-1, (Z/E)-N-((2-(1H-imidazol-4-yl)ethylamino)(biphenyl-2-ylamino)methylene)-2-chlorobenzamide] | >30 µM | >20 µM | > 30 µM | 
18 | O=C(N=C(NCCc1c[nH]cn1)Nc1ccccc1Cl)c1cccc(Cl)c1 [III-17, (Z/E)-N-((2-(1H-imidazol-4-yl)ethylamino)(2-chlorophenylamino)methylene)-3-chlorobenzamide] | >20 µM | >10 µM | > 30 µM | 
19 | O=C(N=C(NCCc1c[nH]cn1)Nc1cccc(Cl)c1)c1cccc(Cl)c1 [III-18, (Z/E)-N-((2-(1H-imidazol-4-yl)ethylamino)(3-chlorophenylamino)methylene)-3-chlorobenzamide] | >20 µM | >10 µM | > 10 µM | 
20 | O=C(/N=C(\Nc1ccc(-c2ccccc2)cc1)Nc1ccc2[nH]ccc2c1)c1cccc(Cl)c1 [IV-8, (Z/E)-N-((1H-indol-5-ylamino)(biphenyl-4-ylamino)methylene)-3-chlorobenzamide] | >30 µM | >10 µM |  | < 10 µM
21 | O=C(/N=C(/NCCc1cn[nH]c1)Nc1ccc(-c2ccccc2)cc1)c1cccc(Cl)c1 [IV-4, (Z/E)-N-((2-(1H-pyrazol-4-yl)ethylamino)(biphenyl-4-ylamino)methylene)-3-chlorobenzamide] | >10 µM | <10 µM |  | < 10 µM
22 | Cc1ccc(NC(=NC(=O)c2cccc(Cl)c2)NCCc2c[nH]cn2)cc1 [III-10, (Z/E)-N-((2-(1H-imidazol-4-yl)ethylamino)(p-toluidino)methylene)-3-chlorobenzamide] | >20 µM | >10 µM | > 10 µM | 
23 | CN(C)S(=O)(=O)c1cccc(NC(=NC(=O)c2cccc(Cl)c2)NCCc2cnc[nH]2)c1 [III-40, (Z/E)-N-((2-(1H-imidazol-5-yl)ethylamino)(3-(N,N-dimethylsulfamoyl)phenylamino)methylene)-3-chlorobenzamide] | >30 µM | >20 µM | > 30 µM | 
24 | O=C(/N=C(/NCCN1CCNC1=O)Nc1ccc(-c2ccccc2)cc1)c1cccc(Cl)c1 [IV-7, (Z/E)-N-((biphenyl-4-ylamino)(2-(2-oxoimidazolidin-1-yl)ethylamino)methylene)-3-chlorobenzamide] | >30 µM | >20 µM |  | > 30 µM
25 | O=C(N=C(NCCc1c[nH]cn1)Nc1cccc(Br)c1)c1cccc(Cl)c1 [III-3, (Z/E)-N-((2-(1H-imidazol-4-yl)ethylamino)(3-bromophenylamino)methylene)-3-chlorobenzamide] | >10 µM | <10 µM | > 10 µM | 
26 | O=C(N=C(NCCc1c[nH]cn1)Nc1cccc(C(F)(F)F)c1)c1cccc(Cl)c1 [III-24, (Z/E)-N-((2-(1H-imidazol-4-yl)ethylamino)(3-(trifluoromethyl)phenylamino)methylene)-3-chlorobenzamide] | <10 µM | <10 µM | > 10 µM | 
